Counter-ions that a name gives are not always drawn.
target: T1, recombinant guanylate cyclase reporter cell line (Rattus norvegicus, UniProt P19686+P20595); experiment: B-2. Action on recombinant guanylate cyclase reporter cell line; assay type: cell-based; conditions: MEC = minimal effective concentration; in some cases mean values from individual determinations
T1 construct: expressed in transfected cells
T1 sequence (P20595 1-619): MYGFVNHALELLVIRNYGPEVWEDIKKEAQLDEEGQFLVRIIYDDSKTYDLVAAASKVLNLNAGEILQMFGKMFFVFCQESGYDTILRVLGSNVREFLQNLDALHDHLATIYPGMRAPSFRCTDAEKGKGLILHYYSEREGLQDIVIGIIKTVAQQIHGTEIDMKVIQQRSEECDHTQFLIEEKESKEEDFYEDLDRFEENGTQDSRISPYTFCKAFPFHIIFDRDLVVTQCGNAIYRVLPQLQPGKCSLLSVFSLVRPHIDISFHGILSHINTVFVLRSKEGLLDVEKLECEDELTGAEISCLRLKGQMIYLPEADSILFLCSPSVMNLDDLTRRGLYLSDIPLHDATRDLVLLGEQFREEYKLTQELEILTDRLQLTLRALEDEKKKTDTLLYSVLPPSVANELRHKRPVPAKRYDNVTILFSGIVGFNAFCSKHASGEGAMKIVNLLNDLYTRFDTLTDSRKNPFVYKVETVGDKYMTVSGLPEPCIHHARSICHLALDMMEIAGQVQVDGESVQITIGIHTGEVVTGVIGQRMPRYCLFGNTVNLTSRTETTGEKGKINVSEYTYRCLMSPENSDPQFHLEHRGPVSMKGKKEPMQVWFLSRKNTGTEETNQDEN
T1 sequence (P19686 1-690): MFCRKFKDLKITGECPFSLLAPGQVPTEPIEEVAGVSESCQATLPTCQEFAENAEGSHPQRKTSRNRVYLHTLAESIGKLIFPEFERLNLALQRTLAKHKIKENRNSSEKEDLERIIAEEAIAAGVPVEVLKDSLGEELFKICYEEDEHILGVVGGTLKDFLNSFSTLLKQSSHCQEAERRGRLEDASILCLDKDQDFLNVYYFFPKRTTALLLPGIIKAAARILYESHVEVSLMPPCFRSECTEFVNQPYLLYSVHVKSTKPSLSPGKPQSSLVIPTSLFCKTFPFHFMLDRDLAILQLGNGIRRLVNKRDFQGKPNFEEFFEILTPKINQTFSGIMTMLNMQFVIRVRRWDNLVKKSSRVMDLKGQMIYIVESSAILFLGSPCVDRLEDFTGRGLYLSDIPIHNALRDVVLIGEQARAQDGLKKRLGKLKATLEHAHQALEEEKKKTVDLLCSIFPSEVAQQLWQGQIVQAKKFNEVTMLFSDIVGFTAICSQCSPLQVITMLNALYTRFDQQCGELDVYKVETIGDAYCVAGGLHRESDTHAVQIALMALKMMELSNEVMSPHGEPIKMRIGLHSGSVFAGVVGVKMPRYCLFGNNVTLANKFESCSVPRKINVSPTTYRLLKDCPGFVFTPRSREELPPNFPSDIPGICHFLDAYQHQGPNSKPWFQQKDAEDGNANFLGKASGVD
Summary of the method: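 Read-out: MEC (minimal effective concentration) in cells. Reporter line carries recombinant sGC. Some values are averages of single runs.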

Structure (SMILES)	MEC [µM]
COCCNCCNC(=O)c1c(C)nc2c(OCc3c(F)cccc3F)cccn12 [Example 144, 8-[(2,6-difluorobenzyl)oxy]-N-{2-[(2-methoxyethyl)amino]ethyl}-2-methylimidazo[1,2-a]pyridine-3-carboxamide]	3.00
Cc1nc2c(OCc3c(F)cccc3F)cccn2c1C(=O)NCC(C)(C)N(C)C [Example 145, 8-[(2,6-difluorobenzyl)oxy]-N-[2-(dimethylamino)-2-methylpropyl]-2-methylimidazo[1,2-a]pyridine-3-carboxamide]	3.00
Cc1nc2c(OCc3c(F)cccc3F)cccn2c1C(=O)NCCN(CC(F)F)C1CC1 [Example 146, N-{2-[cyclopropyl(2,2-difluoroethyl)amino]ethyl}-8-[(2,6-difluorobenzyl)oxy]-2-methylimidazo[1,2-a]-pyridine-3-carboxamide]	1.00
Cc1nc2c(OCc3c(F)cccc3F)cc(Cl)cn2c1C(=O)NCC(C)(C)N1CCCC1 [Example 148, 6-chloro-8-[(2,6-difluorobenzyl)oxy]-2-methyl-N-[2-methyl-2-(pyrrolidin-1-yl)-propyl]imidazo[1,2-a)pyridine-3-carboxamide]	1.00
Cc1nc2c(OCc3c(F)cccc3F)cc(Cl)cn2c1C(=O)NCCNC(C)C [Example 149, 6-chloro-8-[(2,6-difluorobenzyl)oxy]-N-[2-(isopropylamino)ethyl]-2-methylimidazo[1,2-a]-pyridine-3-carboxamide]	1.00
Cc1nc2c(OCc3c(F)cccc3F)cc(Cl)cn2c1C(=O)NCCN(CC(F)F)C1CC1 [Example 150, 6-chloro-N-{2-[cyclopropyl(2,2-difluoroethyl)-amino]ethyl}-8-[(2,6-difluorobenzyl)oxy]-2-methylimidazo[1,2-a]pyridine-3-carboxamide]	0.10
Cc1nc2c(OCc3c(F)cccc3F)cc(Cl)cn2c1C(=O)NCCN1CCC(F)(F)CC1 [Example 151, 6-chloro-8-[(2,6-difluorobenzyl)oxy]-N-[2-(4,4-difluoropiperidin-1-yl)ethyl]-2-methylimidazo[1,2-a]pyridine-3-carboxamide]	0.10
Cc1nc2c(OCc3c(F)cccc3F)cc(Cl)cn2c1C(=O)NCCN1CCN(C(C)C)CC1 [Example 152, 6-chloro-8-[(2,6-difluorobenzyl)oxy]-N-[2-(4-isopropylpiperazin-1-yl)ethyl]-2-methyl-imidazo[1,2-a]pyridine-3-carboxamide]	1.00
COCCNCCNC(=O)c1c(C)nc2c(OCc3c(F)cccc3F)cc(Cl)cn12 [Example 153, 6-chloro-8-[(2,6-difluorobenzyl)oxy]-N-{2-[(2-methoxyethyl)amino]ethyl}-2-methylimidazo[1,2-a]pyridine-3-carboxamide]	1.00
Cc1nc2c(OCc3c(F)cccc3F)cc(Cl)cn2c1C(=O)NCCN1CCN(C)CC1 [Example 154, 6-chloro-8-[(2,6-difluorobenzyl)oxy]-2-methyl-N-[2-(4-methylpiperazin-1-yl)ethyl]imidazo[1,2-a]pyridine-3-carboxamide]	1.00
Cc1nc2c(OCc3c(F)cccc3F)cc(Cl)cn2c1C(=O)NCC1(N)CCC1 [Example 155, N-[(1-aminocyclobutyl)methyl]-6-chloro-8-[(2,6-difluorobenzyl)oxy]-2-methylimidazo[1,2-a]-pyridine-3-carboxamide trifluoroacetate]	0.30
Cc1nc2c(OCc3c(F)cccc3F)cc(Cl)cn2c1C(=O)NCCN1CC(N2CCCC2)C1 [Example 156, 6-chloro-8-[(2,6-difluorobenzyl)oxy]-2-methyl-N-{2-[3-(pyrrolidin-1-yl)azetidin-1-yl]ethyl}-imidazo[1,2-a]pyridine-3-carboxamide]	3.00
Cc1nc2c(OCc3c(F)cccc3F)cc(Cl)cn2c1C(=O)NCCN1C[C@@H](C)O[C@@H](C)C1 [Example 158, 6-chloro-8-[(2,6-difluorobenzyl)oxy]-N-{2-[(2R,6S)-2,6-dimethylmorpholin-4-yl]ethyl}-2-methylimidazo[1,2-a]pyridine-3-carboxamide]	0.30
Cc1cc(OCc2c(F)cccc2F)c2nc(C)c(C(=O)NC3CCCC(N)C3)n2c1 (centres unmarked) [Example 160, N-(3-aminocyclohexyl)-8-[(2,6-difluorobenzyl)oxy]-2,6-dimethylimidazo[1,2-a]-pyridine-3-carboxamide]	1.00
Cc1cc(OCc2c(F)cccc2F)c2nc(C)c(C(=O)NCCN3CC(N4CCCC4)C3)n2c1 [Example 162, 8-[(2,6-difluorobenzyl)oxy]-2,6-dimethyl-N-{2-[3-(pyrrolidin-1-yl)azetidin-1-yl]ethyl}imidazo[1,2-a]pyridine-3-carboxamide]	3.00
Cc1cc(OCc2c(F)cccc2F)c2nc(C)c(C(=O)NCCN3CCC(F)(F)CC3)n2c1 [Example 163, 8-[(2,6-difluorobenzyl)oxy]-N-[2-(4,4-difluoro-piperidin-1-yl)ethyl]-2,6-dimethylimidazo[1,2-a]pyridine-3-carboxamide]	0.30
Cc1cc(OCc2c(F)cccc2F)c2nc(C)c(C(=O)NCCN(CC(F)F)C3CC3)n2c1 [Example 164, N-{2-[cyclopropyl(2,2-difluoroethyl)amino]ethyl}-8-[(2,6-difluorobenzyl)oxy]-2,6-dimethylimidazo[1,2-a]-pyridine-3-carboxamide]	0.10
Cc1cc(OCc2c(F)cccc2F)c2nc(C)c(C(=O)NCC3(N)CCC3)n2c1 [Example 165, N-[(1-aminocyclobutyl)methyl]-8-[(2,6-difluorobenzyl)oxy]-2,6-dimethylimidazo[1,2-a]-pyridine-3-carboxamide]	0.10
Cc1cc(OCc2c(F)cccc2F)c2nc(C)c(C(=O)NCCN3C[C@@H](C)O[C@@H](C)C3)n2c1 [Example 167, 8-[(2,6-difluorobenzyl)oxy]-N-{2-[(2R,6S)-2,6-dimethylmorpholin-4-yl]ethyl}-2,6-dimethyl-imidazo[1,2-a]pyridine-3-carboxamide]	1.00
Cc1nc2c(OCc3c(F)cccc3F)cccn2c1C(=O)NCCN1CCN(C2CC2)CC1 [Example 168, N-[2-(4-Cyclopropylpiperazin-1-yl)ethyl]-8-[(2,6-difluorobenzyl)oxy]-2-methylimidazo[1,2-a]-pyridine-3-carboxamide]	1.00
Cc1nc2c(OCc3c(F)cccc3F)cccn2c1C(=O)NCCNCC(F)F [Example 169, 8-[(2,6-difluorobenzyl)oxy]-N-{2-[(2,2-difluoroethyl)amino]ethyl}-2-methylimidazo[1,2-a]pyridine-3-carboxamide]	1.65
Cc1nc2c(OCc3c(F)cccc3F)cccn2c1C(=O)N[C@H](C)CN1CCOCC1 [Example 170, 8-[(2,6-difluorobenzyl)oxy]-2-methyl-N-[(2R)-1-(morpholin-4-yl)propan-2-yl]imidazo[1,2-a]-pyridine-3-carboxamide]	3.00
Cc1nc2c(OCc3c(F)cccc3F)cccn2c1C(=O)N[C@@H](C)CN1CCOCC1 [Example 171, 8-[(2,6-difluorobenzyl)oxy]-2-methyl-N-[(2S)-1-(morpholin-4-yl)propan-2-yl]imidazo[1,2-a]-pyridine-3-carboxamide]	1.00
Cc1cc(OCc2c(F)cccc2F)c2nc(C)c(C(=O)NC[C@@H]3CCCCN3)n2c1 [Example 172, 8-[(2,6-Difluorobenzyl)oxy]-2,6-dimethyl-N-[(2S)-piperidin-2-ylmethyl]imidazo[1,2-a]pyridine-3-carboxamide]	0.30
Cc1cc(OCc2c(F)cccc2F)c2nc(C)c(C(=O)NC[C@H]3CCCCN3)n2c1 [Example 173, 8-[(2,6-Difluorobenzyl)oxy]-2,6-dimethyl-N-[(2R)-piperidin-2-ylmethyl]imidazo[1,2-a]pyridine-3-carboxamide]	0.30
Cc1cc(OCc2c(F)cccc2F)c2nc(C)c(C(=O)NCC3(N)COC3)n2c1 [Example 216, N-[(3-Aminooxetan-3-yl)methyl]-8-[(2,6-difluorobenzyl)oxy]-2,6-dimethylimidazo[1,2-a]pyridine-3-carboxamide]	1.00
